Here are results for 17 compounds from US5569654A, “Benzodiazepinones” (Glaxo Group Limited, priority 1992, dated 1996).

One series addresses T1, CCK-B receptor (Cavia porcellus, UniProt H0VZC5).
T1 construct: guinea pig cortex assay; from tissue; host or cells: guinea pig cortex
T1 sequence (H0VZC5 1-426): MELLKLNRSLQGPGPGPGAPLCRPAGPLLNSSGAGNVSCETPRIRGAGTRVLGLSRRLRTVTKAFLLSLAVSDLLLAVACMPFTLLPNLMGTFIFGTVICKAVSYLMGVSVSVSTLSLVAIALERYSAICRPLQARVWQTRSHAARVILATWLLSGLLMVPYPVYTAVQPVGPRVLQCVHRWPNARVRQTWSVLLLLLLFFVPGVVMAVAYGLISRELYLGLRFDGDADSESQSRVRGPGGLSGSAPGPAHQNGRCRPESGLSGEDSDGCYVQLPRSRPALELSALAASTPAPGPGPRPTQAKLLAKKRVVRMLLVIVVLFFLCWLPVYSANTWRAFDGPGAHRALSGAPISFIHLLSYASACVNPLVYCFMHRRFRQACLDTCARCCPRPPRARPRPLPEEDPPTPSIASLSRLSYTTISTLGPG
In words: CCK-B receptor binding affinity (guinea pig cortex assay).
Conditions: not given
How it is done: The affinity of the compound of the invention for the CCK-B receptor has also been determined using the guinea pig codex assay as described by G Dal Fornoto et al J. Pharmacol Exp. Ther., 261 1056-1063, 1992.
The binding affinity of the compounds of the invention for the CCK-B receptor (guinea pig cortex assay) was determined using the procedure of G Dal Forno et al J. Pharmacol. Exp & Ther. 261--1056-1063. The pKi values determined with respresentative compounds of invention were as follows: […]
Consider `CN1CCN(CC2=NC(NC(=O)Nc3cccc(C#N)c3)C(=O)N(CC(=O)N(C)c3ccccc3)c3ccccc32)CC1` (stereo not shown) [Example 16, 2-{3-[3-(3-Cyano-phenyl)-ureido]-5-(4-methyl-piperazin-1-ylmethyl)-2-oxo-2,3-dihydro-benzo[e][1,4]diazepin-1-yl}-N-methyl-N-phenyl-acetamide], for which the Ki was 5.01 nM. With `CCN(C(=O)CN1C(=O)C(NC(=O)Nc2cccc(C#N)c2)N=C(CN2CCOCC2)c2ccccc21)c1ccccc1` (stereo not shown) [Example 7, 2-{3-[3-(3-Cyano-phenyl)-ureido]-5-morpholin-4-ylmethyl-2-oxo-2,3-dihydro-benzo[e][1,4]diazepin-1yl}-N-ethyl-N-phenyl-acetamide], the Ki was 1.58 nM. On to `CC(C)(C)C(=O)CN1C(=O)C(NC(=O)Nc2cccc(C#N)c2)N=C(CN2CCOCC2)c2ccccc21` (stereo not shown) [Example 8, 1-(3-Cyano-phenyl)-3-[1-(3,3-dimethyl-2-oxo-butyl)-5-morpholin-4-ylmethyl-2-oxo-2,3-dihydro-1H-benzo[e][1,4]diazepin-3-yl]-urea], for which the affinity, expressed as Ki, was 1.58 nM. The same measure, in the same setting: the same measure for `COc1cccc(NC(=O)NC2N=C(CN3CCOCC3)c3ccccc3N(CC(=O)N(C)c3ccccc3)C2=O)c1` (single isomer, unassigned; (+)) [Example 14, (+)-2-{3-[3-(3-Methoxy-phenyl)-ureido]-5-morpholin-4-ylmethyl-2-oxo-2.3-dihydro-benzo [e][1,4]diazepin-1-yl}-N-methyl-N-phenyl-acetamide]: 1 nM; for `O=C(Nc1cccc(-c2cnco2)c1)NC1N=C(CN2CCOCC2)c2ccccc2N(CC(=O)N2CCCC2)C1=O` (stereo not shown) [Example 19, 1-[5-(Morpholin-4-yl-methyl)-2-oxo-1-(2-oxo-2-pyrrolidin-1-yl-ethyl)-2,3-dihydro-benzo[e][1,4]diazepin-3-yl]-3-(3-oxazol-5-yl-phenyl)-urea]: 3.16 nM; for `CC(C)NCC1=NC(NC(=O)Nc2cccc(C#N)c2)C(=O)N(CC(=O)N(C)c2ccccc2)c2ccccc21` (stereo not shown) [Example 3, 2-{-[3-(3-Cyano-phenyl)ureido]-5-(isopropylamino-methyl)-2-oxo-2,3-dihydro-benzo-[e][1,4]diazepin-1-yl}-N-methyl-N-phenyl-acetamide]: 2.51 nM. Still for that read-out and setting: the same measure for `COc1cccc(NC(=O)NC2N=C(CN3CCOCC3)c3ccccc3N(CC(=O)N(C)c3ccccc3)C2=O)c1` (stereo not shown) [Example 9, 2-{3-[3-(3-Methoxy-phenyl)-ureido]-5-morpholin-4-ylmethyl-2-oxo-2,3-dihydro-benzo[e][1,4]diazepin-1-yl}-N-methyl-N-phenyl-acetamide]: 1.26 nM. Still for that read-out and setting: the same measure for `CN(C(=O)CN1C(=O)C(NC(=O)Nc2cccc(C#N)c2)N=C(CN2CCCC2)c2ccccc21)c1ccccc1` (stereo not shown) [Example 2, 2-{3-[3-(3-Cyano-phenyl)-ureido]-2-oxo-5-pyrrolidin-1-ylmethyl-2,3-dihydro-[e][1,4]diazepin-1-yl}-N-methyl-N-phenyl-acetamide]: 3.98 nM. `CN(C(=O)CN1C(=O)C(NC(=O)Nc2ccccc2)N=C(CN2CCOCC2)c2ccccc21)c1ccccc1` (stereo not shown) [Example 10, N-Methyl-2-[5-morpholin-4-ylmethyl-2-oxo-3-(3-phenyl-ureido)-2,3-dihydro-benzo[e][1,4]diazepin-1-yl]-N-methyl-N-phenyl-acetamide] showed a Ki of 0.794 nM. On the same count and under the same terms, the same measure for `CN(C(=O)CN1C(=O)C(NC(=O)Nc2cccc(C#N)c2)N=C(CN2CCOCC2)c2ccccc21)c1ccccc1` (stereo not shown) [Example 18, 2-{3-[3-(3-Cyano-phenyl)-ureido]-5-morpholin-4-ylmethyl-2-oxo-2,3-dihydro-benzo [e][1,4]diazepin-1-yl}-N-methyl-N-phenyl-acetamide]: 1.26 nM; for `C[C@@H]1CC[C@H](C)N1C(=O)CN1C(=O)C(NC(=O)Nc2cccc(C#N)c2)N=C(CN2CCOCC2)c2ccccc21` (stereo partly shown) [Example 5]: 3.16 nM. Still for that read-out and setting: the same measure for `CN(C(=O)CN1C(=O)C(NC(=O)Nc2cccc(C#N)c2)N=C(CN2CCCCC2)c2ccccc21)c1ccccc1` (stereo not shown) [Example 1, 2-{3-[3-(3-Cyano-phenyl)-ureido]-2-oxo-5-piperidin-1-ylmethyl-2,3-dihydro-benzo-[e][4.1]diazepin-1-yl}-N-methyl-N-phenyl-acetamide]: 1 nM; for `COc1cccc(NC(=O)NC2N=C(CCN(C)C)c3ccccc3N(CC(=O)N(C)c3ccccc3)C2=O)c1` (stereo not shown) [Example 17]: 2.51 nM. The same measure, in the same setting: the same measure for `CN(C(=O)CN1C(=O)C(NC(=O)Nc2cccc(C#N)c2)N=C(CN2CCSCC2)c2ccccc21)c1ccccc1` (stereo not shown) [Example 4, 2-{3-[3-(3-Cyano-phenyl)-ureido]-2-oxo-5-[1,4]thiazinan-4-ylmethyl-2,3-dihydro-benzo[e][1,4]diazepin-1-y}-N-methyl-N-phenyl-acetamide]: 1.58 nM; for `CN(C(=O)CN1C(=O)C(NC(=O)Nc2cccc(C(F)(F)F)c2)N=C(CN2CCOCC2)c2ccccc21)c1ccccc1` (stereo not shown) [Example 11, N-Methyl-2-{5-morpholin-4-ylmethyl-2-oxo-3-[3-(3-trifluoromethyl-phenyl)-ureido]-2,3-dihydro-benzo[e][1,4]diazepin-1-yl}-N-phenyl-acetamide]: 0.501 nM; for `CN(C(=O)CN1C(=O)C(NC(=O)Nc2cccc(C#N)c2)N=C(CN2CCOCC2)c2ccccc21)c1ccc(F)cc1` (stereo not shown) [Example 6, 2-{3-[3-(3-Cyano-phenyl)-ureido]-5-morpholin-4-ylmethyl-2-oxo-2,3-dihydro-benzo-[e][1,4]diazepin-1-yl}-N-(4-fluoro-phenyl)-N-methyl-acetamide]: 2 nM. With `CN(C(=O)CN1C(=O)C(NC(=O)Nc2cccc(N)c2)N=C(CN2CCOCC2)c2ccccc21)c1ccccc1` (stereo not shown) [Example 13, 2-{3-[3-(3-Amino-phenyl)-ureido]-5-morpholin-4-ylmethyl-2-oxo-2,3-dihydro-benzo[e][1,4]diazepin-1-yl}-N-methyl-N-phenyl-acetamide], affinity was put at a Ki of 6.31 nM.

For another series, the system named is rats. In words: tolerability in rats. It is filed as in vivo. The conditions noted are these: doses at which the compound exhibits CCK-B antagonist activity. The text has this: (§1) The compounds of the invention are essentially non-toxic and therapeutically useful doses.
As for `COc1cccc(NC(=O)NC2N=C(CN3CCOCC3)c3ccccc3N(CC(=O)N(C)c3ccccc3)C2=O)c1` (single isomer, unassigned; (+)) [Example 14, (+)-2-{3-[3-(3-Methoxy-phenyl)-ureido]-5-morpholin-4-ylmethyl-2-oxo-2.3-dihydro-benzo [e][1,4]diazepin-1-yl}-N-methyl-N-phenyl-acetamide], the “untoward effects in rats” value was “no untoward effects were observed”.

For another series, the system named is dogs. In words: tolerability in dogs. It is filed as in vivo. Conditions: doses at which the compound exhibits CCK-B antagonist activity.
From the text: as §1
Turning to `COc1cccc(NC(=O)NC2N=C(CN3CCOCC3)c3ccccc3N(CC(=O)N(C)c3ccccc3)C2=O)c1` (single isomer, unassigned; (+)) [Example 14, (+)-2-{3-[3-(3-Methoxy-phenyl)-ureido]-5-morpholin-4-ylmethyl-2-oxo-2.3-dihydro-benzo [e][1,4]diazepin-1-yl}-N-methyl-N-phenyl-acetamide], the “untoward effects in dogs” value is “no untoward effects were observed”.
